The source of these data is patent US8466157B2, “Proteasome inhibitors having chymotrypsin-like activity” (University of South Florida, priority 2009, dated 2013).

Where “and” joins values, the source holds several entries; their conditions need not be identical. Equal values may be shown once. Read-outs that look alike come from different tables or passages of the source.

One may read the IC50 as the midpoint of a concentration-inhibition curve. A word on the melting point: it is the temperature of the solid-liquid transition.

The target in data set [1] is T1, chymotrypsin-like activity of the purified rabbit 20S proteasome (Oryctolagus cuniculus, UniProt G1T4Q9).
T1 sequence (G1T4Q9 1-263): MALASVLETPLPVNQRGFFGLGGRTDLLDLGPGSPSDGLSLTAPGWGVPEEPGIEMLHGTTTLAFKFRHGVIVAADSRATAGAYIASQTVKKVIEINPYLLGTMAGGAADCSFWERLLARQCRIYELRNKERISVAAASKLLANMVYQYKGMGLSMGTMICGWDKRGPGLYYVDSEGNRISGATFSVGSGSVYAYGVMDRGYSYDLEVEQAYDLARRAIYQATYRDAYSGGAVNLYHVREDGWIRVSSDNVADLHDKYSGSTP
Kind of data set: 20S proteasome inhibition assay, fluorogenic substrate Suc-Leu-Leu-Val-Tyr-AMC.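 As to all read-outs here: enzyme and 20 µM substrate incubated 1 h at 37 °C in Tris-HCl buffer pH 7.6, fluorogenic read-out, inhibition calculated against vehicle control.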 It is filed as biochemical. The following applies: for proteasome inhibitory activity, SAR statement in words: chymotrypsin-like activity, compared with lead or analogue; for decrease of proteasome inhibition activity: 14u, 14v vs linear-chain analogues, 14q vs lead compound 10a.
Protocol: 20S Proteasome Inhibition Assay
In our work, we used chymotrypsin-like substrate Suc-Leu-Leu-Val-Tyr-AMC to test the proteasome inhibition activity of the synthesized compounds.
The assay was conducted by using a fluorogenic peptide as substrate to test synthesized compounds for inhibitory activity against the chymotrypsin-like activity of the purified rabbit 20S proteasome. Briefly, 70 ng of purified 20S proteasome was incubated with 20 μM Suc-Leu-Leu-Val-Tyr-AMC for 1 hour at 37° C. in 100 μl of assay buffer (50 mM Tris-HCl, pH 7.6) with or without inhibitors. […] The inhibitory activity of the compounds was calculated based on vehicle control.

For another data set, the target named is T2, CT-L (Homo sapiens, UniProt P28074).
T2 construct: endogenous in cells
T2 sequence (P28074 60-263): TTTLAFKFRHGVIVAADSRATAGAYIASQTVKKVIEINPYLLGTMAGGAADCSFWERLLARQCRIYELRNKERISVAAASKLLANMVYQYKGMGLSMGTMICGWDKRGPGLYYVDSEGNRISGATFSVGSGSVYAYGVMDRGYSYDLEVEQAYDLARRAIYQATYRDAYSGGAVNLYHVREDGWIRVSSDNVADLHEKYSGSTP
Kind of data set: Inhibition of CT-L in cell culture. It is filed as cell-based. The following applies: read-out: IC50 (μM)* In Cell culture against CT-L.

Where [2] appears, read: individual determinations (runs M-1096, M-1098, M-1099, AK or dated), read-out: Chymotrypsin-like Activity IC50.
Setting [3] is: mean of the individual determinations, read-out: Chymotrypsin-like Activity IC50 (μM), mean ± spread (n).
[4] abbreviates: 30 μM, runs M-1096, M-1098, M-1099.

Regarding `CCOC(=O)CSc1cc(NS(=O)(=O)c2ccccc2)c2ccccc2c1O` [YG1-113, Ethyl 2-(1-hydroxy-4-(phenylsulfonamido)naphthalen-2-ylthio)acetate], the melting point fell in the range of 118 to 120 °C. The “proteasome inhibitory activity, SAR statement in words” value (“proteasome inhibitory activity” below) in data set [1] is recorded as “reduced compared to acid analogues”. In data set [1] (setting [2]), the IC50 was 1.74 µM and 7 µM and 8.7 µM and 2.75 µM and 6.4 µM.
In the case of `O=C(O)CSc1cc(NS(=O)(=O)c2cc(Cl)c(Cl)s2)c2ccccc2c1O` [HL4-098-2, 2-(4-(4,5-dichlorothiophene-2-sulfonamido)-1-hydroxynaphthalen-2-ylthio)acetic acid], the IC50 in data set [1] (setting [2]) was 1.05 µM and 2.4 µM and 2.67 µM; at CT-L it was 25 µM and 17.4 µM.
Turning to `O=C(O)c1ccccc1Sc1cc(NS(=O)(=O)c2cccs2)c2ccccc2c1O` [YG1-155, 2-(1-hydroxy-4-(thiophene-2-sulfonamido)naphthalen-2-ylthio)benzoic acid], the melting point is 215 °C (dec.). In addition, the IC50 in data set [1] (setting [2]) is 1.12 µM and 4.6 µM and 5.32 µM and 7.7 µM and 7.1 µM and 1.04 µM and 1.5 µM. Also, the IC50 in data set [1] (setting [3]) came to 4.05 µM.
As to `O=C(O)CCSc1cc(NS(=O)(=O)c2cccs2)c2ccccc2c1O` [YG1-116, 3-(1-hydroxy-4-(thiophene-2-sulfonamido)naphthalen-2-ylthio)propanoic acid], the melting point is 185 °C (dec.). Also, the “proteasome inhibitory activity” value in data set [1] is listed as “the inhibitory activity diminished”. In data set [1] (setting [2]), the IC50 came to 7.4 µM.
Regarding `O=C(O)CSc1cc(NS(=O)(=O)c2ccc3ccccc3c2)c2ccccc2c1O` [YG2-034-2, 2-(1-hydroxy-4-(naphthalene-2-sulfonamido)naphthalen-2-ylthio)acetic acid], the melting point is 185 to 187 °C. Moreover, the “decrease of proteasome inhibition activity” value in data set [1] was found to be 3 fold. The 50% inhibitory concentration (IC50) in data set [1] (setting [2]) was > 10 µM and 4 µM and 5.9 µM.
`CCOC(=O)CSc1cc(NS(=O)(=O)c2ccc(-c3ccccc3)cc2)c2ccccc2c1O` [14r, Ethyl 2-(4-(biphenyl-4-ylsulfonamido)-1-hydroxynaphthalen-2-ylthio)acetate]: the melting point is 166 to 168 °C.
With `O=C1C(Sc2ncn[nH]2)=C/C(=N\S(=O)(=O)c2cccs2)c2ccccc21` [YG1-158-2, N-(3-(1H-1,2,4-triazol-5-ylthio)-4-oxonaphthalen-1(4H)-ylidene)thiophene-2-sulfonamide], the melting point was 197 °C (dec.). In addition, in data set [1] (setting [2]), the IC50 is 1.34 µM and 4.38 µM and 3.85 µM and 2.1 µM and 2.09 µM. The IC50 in data set [1] (setting [3]) is 2.75 µM.
Consider `CCOC(=O)CSC1=C/C(=N\S(=O)(=O)c2ccccc2)c2ccccc2C1=O` [YG1-110, Ethyl 2-(1-oxo-4-(phenylsulfonylimino)-1,4-dihydronaphthalen-2-ylthio)acetate], for which the melting point fell in the range of 93 to 95 °C. Further, the IC50 in data set [1] (setting [2]) was 1.04 µM and 1.86 µM and 2.06 µM and 2.35 µM and 3.8 µM. For the same molecule, the IC50 in data set [1] (setting [3]) stood at 2.22 µM.
Consider `O=S(=O)(Nc1ccc(O)c2ccccc12)c1cccs1` [YG1-004, N-(4-hydroxynaphthalen-1-yl)thiophene-2-sulfonamide], for which, in data set [1] (100 μM), the “Chymotrypsin-like Activity Inhib at 100 μM” value is 44% and 67%. For the same molecule, in data set [1], the “proteasome inhibitory activity” value was “loss of the inhibitory activity”. Further, the half-inhibitory concentration (IC50) in data set [1] (setting [2]) was > 30 µM and > 100 µM and 35 µM.
With `CN(C)C(=O)CCSC1=C/C(=N\S(=O)(=O)c2cccs2)c2ccccc2C1=O` [HL4-078-1, N,N-dimethyl-3-(1-oxo-4-(thiophen-2-ylsulfonylimino)-1,4-dihydronaphthalen-2-ylthio)propanamide], the IC50 in data set [1] (setting [2]) was 4.7 µM and 9.65 µM and 9.56 µM and 8.5 µM and > 10 µM; in data set [1] (setting [3]), 8.1 µM.
For the molecule `CCOC(=O)CSC1=C/C(=N\S(=O)(=O)Cc2ccc(Cl)cc2)c2ccccc2C1=O` [YG2-019, Ethyl 2-(4-(4-chlorobenzylsulfonylimino)-1-oxo-1,4-dihydronaphthalen-2-ylthio)-acetate], the IC50 was 6.9 µM and 7.6 µM and > 10 µM (4×) in data set [1] (setting [2]); 7.25 µM in data set [1] (setting [3]).
Turning to `O=S(=O)(Nc1cc(Cl)c(O)c2ccccc12)c1cccs1` [YG1-012, N-(3-chloro-4-hydroxynaphthalen-1-yl)thiophene-2-sulfonamide], in data set [1] (setting [4]), the “Chymotrypsin-like Activity Inhibition at 30 μM” value is 41% and 45%; the inhibition at 30 µM worked out at 33%. The “Chymotrypsin-like Activity Inhib at 100 μM” value in data set [1] (100 μM) is reported as 97%. Besides, the inhibition at 100 µM in data set [1] (100 μM, read-out: Chymotrypsin-like Activity Inhib at 100 μM) worked out at 82%. The IC50 in data set [1] (setting [2]) is > 30 µM and 45 µM and 36 µM.
Turning to `COC(=O)CCSC1=C/C(=N\S(=O)(=O)c2cccs2)c2ccccc2C1=O` [8b, Methyl 3-(1-oxo-4-(thiophen-2-ylsulfonylimino)-1,4-dihydronaphthalen-2-ylthio) propanoate], the melting point lay within 140 to 142 °C.
In the case of `COC(=O)CCSC1=C/C(=N\S(=O)(=O)c2cccs2)c2ccccc2C1=O` [YG1-112], the IC50 in data set [1] (setting [2]) was 2.2 µM and 5.9 µM and 6.1 µM and > 10 µM (2×) and 6 µM and 3 µM; in data set [1] (setting [3]), 4.64 µM.
Regarding `O=C(O)c1ccccc1Sc1cc(NS(=O)(=O)c2ccc(-c3ccccc3)cc2)c2ccccc2c1O` [YG1-168, 2-(4-(biphenyl-4-ylsulfonamido)-1-hydroxynaphthalen-2-ylthio)benzoic acid], the melting point is 205 °C (dec.). Besides, the IC50 in data set [1] (setting [2]) is 2.32 µM and 2.44 µM and 1.84 µM.
Regarding `O=C(O)CSc1ccc(NS(=O)(=O)c2cccs2)c2ccccc12` [YG3-007, 2-(4-(thiophene-2-sulfonamido)naphthalen-1-ylthio)acetic acid], in data set [1] (setting [2]), the 50% inhibitory concentration (IC50) is more than 10 µM.
`O=S(=O)(Nc1cc(SCCO)c(O)c2ccccc12)c1cccs1` [YG1-087-2, N-(4-hydroxy-3-(2-hydroxyethylthio)naphthalen-1-yl)thiophene-2-sulfonamide]: the “proteasome inhibitory activity” value in data set [1] is listed as “the inhibitory activity totally lost”. Moreover, the half-inhibitory concentration (IC50) in data set [1] (setting [2]) is more than 10 µM.
On to `CC(Sc1cc(NS(=O)(=O)c2ccc(Cl)cc2)c2ccccc2c1O)C(=O)O` (centres unmarked) [YG2-024-1, 2-(4-(4-chlorophenylsulfonamido)-1-hydroxynaphthalen-2-ylthio)propanoic acid], for which the melting point lay within 177 to 179 °C. The “decrease of proteasome inhibition activity” value in data set [1] is approximately 2 fold. The IC50 in data set [1] (setting [2]) was 9.5 µM and > 10 µM and 8 µM.
With `O=C1C(N2CCOCC2)=C/C(=N\S(=O)(=O)c2cccs2)c2ccccc21` [YG1-129, N-(3-morpholino-4-oxonaphthalen-1(4H)-ylidene)thiophene-2-sulfonamide], the melting point was 195 °C (dec.). Further, in data set [1] (setting [2]), the IC50 was more than 10 µM.
For `COC(=O)CCSc1cc(NS(=O)(=O)c2cc(Cl)c(Cl)s2)c2ccccc2c1O` [HL4-098-3, Methyl-3-(4-(4,5-dichlorothiophene-2-sulfonamido)-1-hydroxynaphthalen-2-ylthio)propanoate], the 50% inhibitory concentration (IC50) in data set [1] (setting [2]) was 0.81 µM and 1.5 µM and 1.52 µM and 0.9 µM.
The same measure, in the same setting: for `COC(=O)CCSc1cc(NS(=O)(=O)c2cccs2)c2ccccc2c1O` [YG1-107] the value was 2.28 µM and 2.26 µM and 6.6 µM and 3.9 µM and 7.1 µM and 7.7 µM.
For `COC(=O)CCSc1cc(NS(=O)(=O)c2cccs2)c2ccccc2c1O` [9b, Methyl 3-(1-hydroxy-4-(thiophene-2-sulfonamido)naphthalen-2-ylthio)propanoate], the melting point is 117 to 119 °C.
Consider `CCOC(=O)CS(=O)(=O)c1cc(NS(=O)(=O)c2cccs2)c2ccccc2c1O` [YG1-133, Ethyl 2-(1-hydroxy-4-(thiophene-2-sulfonamido)naphthalen-2-ylsulfonyl)acetate], for which, in data set [1] (setting [2]), the IC50 is 8.2 µM and > 10 µM (2×).
Still for that read-out and setting: the value for `O=S(=O)(Nc1cc(Br)c(O)c2ccccc12)c1cccs1` [YG1-034, N-(3-bromo-4-hydroxynaphthalen-1-yl)thiophene-2-sulfonamide] was > 30 µM and > 100 µM and 28 µM.
For `O=C(CCSC1=C/C(=N\S(=O)(=O)c2cccs2)c2ccccc2C1=O)NC1CC1` [HL4-078-3, N-cyclopropyl-3-(1-oxo-4-(thiophen-2-ylsulfonylimino)-1,4-dihydronaphthalen-2-ylthio)propanamide], the IC50 in data set [1] (setting [2]) was 5.5 µM and 8.65 µM and > 10 µM (2×); in data set [1] (setting [3]), 8.05 µM.
As to `CC(C)(C)OC(=O)COC1=CC(=O)c2ccccc2C1=O` [YL2-013, tert-Butyl 2-(1,4-dioxo-1,4-dihydronaphthalen-2-yloxy)acetate], the melting point was 120 to 122 °C. Moreover, the concentration for half-maximal inhibition (IC50) in data set [1] (setting [2]) was more than 10 µM.
Take `CC(Sc1cc(NS(=O)(=O)c2ccc3ccccc3c2)c2ccccc2c1O)C(=O)O` (centres unmarked) [YG2-024-2, 2-(1-hydroxy-4-(naphthalene-2-sulfonamido)naphthalen-2-ylthio)propanoic acid]: the melting point lay within 176 to 178 °C. In addition, the “decrease of proteasome inhibition activity” value in data set [1] was approximately 2 fold. The half-inhibitory concentration (IC50) in data set [1] (setting [2]) was 9.6 µM and 8.45 µM.
Regarding `O=S(=O)(Nc1cc(I)c(O)c2ccccc12)c1cccs1` [YG1-033, N-(3-iodo-4-hydroxynaphthalen-1-yl)thiophene-2-sulfonamide], the melting point is 134 to 136 °C. Besides, in data set [1] (setting [2]), the concentration for half-maximal inhibition (IC50) is 26 µM and > 100 µM and 28 µM.
Take `CCOC(=O)CSc1cc(NS(=O)(=O)c2cccs2)c2ccccc2c1O` [9a, Ethyl 2-(1-hydroxy-4-(thiophene-2-sulfonamido)naphthalen-2-ylthio)acetate]: the “proteasome inhibitory activity” value in data set [1] is given as “reduced compared to acid analogues”.
As for `O=C(O)COc1ccc(NS(=O)(=O)c2cccs2)c2ccccc12` [YG2-083, 2-(4-(thiophene-2-sulfonamido)naphthalen-1-yloxy)acetic acid], in data set [1] (setting [2]), the half-inhibitory concentration (IC50) is more than 10 µM.
